Experimental data as given in patent US10844354B2, “Cardiomyocyte maturation” (Ncardia B.V., priority 2014, dated 2020).

System: stem-cell derived cardiomyocytes
Experiment: Perforated patch clamp action potential measurement of spontaneously beating stem-cell derived cardiomyocytes
Assay type: cell-based, human
Details: induced pluripotent stem cell derived cardiomyocytes
Experimental: Differentiated (fetal-like/immature) human stem-cell derived cardiomyocytes were subsequently cultured and allowed to mature as described below, although any other method in the art may suitable be used. Tissue culture plastic was coated using Matrigel (Corning) at a concentration of 1/100 in DMEM, for 45 min at room temperature. A single cell suspension coming from dissociated embryoid bodies, dissociated monolayers or (commercially obtained) frozen (fetal-like (immature)) stem-cell derived cardiomyocytes were seeded at an appropriate density on matrigel coated tissue culture plastic (e.g. in 20-40 k cells per well of a 96-well plate, e.g. 20-200 k per well of a 12 well plate). On day 1 following plating, the foetal-like (immature) cardiomyocytes were exposed to a culture medium composition of the invention, which consists of a serum-free culture medium composition comprising 50 ng/ml of T3 (Sigma T6397), 2 mM of carnitine, 5 mM of creatine, 5 mM of taurine, 2.2 microgram/ml of cholesterol, 0.1 microgram/ml of linoleic acid, 0.1 microgram/ml of linolenic acid, 0.1 microgram/ml of palmitic acid (lipids, for example, from Gibco 11905), 10 mg/ml of insulin, 5.5 mg/ml of transferrin, 0.0067 mg/ml of selenium (insulin, transferrin and selenium from e.g. Gibco 51500), 0.01% of trace element mix B (as described herein; Cellgro 99-175-CL), 0.1% of trace element mix C (as described herein; Cellgro 99-176-CL), 0.5 w/w % of antibiotics (penicillin-streptomycin mixture commercially available Gibco (Gibco 12070; 5000 U/ML), 0.05 mg/ml ascorbic acid, 2 mM of Glutamax supplement (i.e. L-alanyl-L-glutamine dipeptide in 0.85% NaCl, commercially available at Gibco, e.g. Gibco 35050), 0.125 w/w % polyvinylalcohol (PVA), 450 nM of alpha monothiolglycerol (MTG) (commercially available), 025 w/w %/o BSA (Bovostar BSAS1.0) in 46.5% (w/w) IMDM (Gibco 21056) and 46.5% (w/w) HAM F-12 with glutamax (Gibco 31765). All concentrations are expressed as final concentration in the culture medium composition. This step was repeated every 2-3 days. In those experiments that also use thyroid hormone or a thyroid hormone analog, treatment with the culture medium composition as taught herein comprising e.g. T3 started either at day 1, day 3 or day 7 post plating.
At day 10 dbcAMP was added to a final concentration of 0.5 mM and the cell were further cultured. Action potential measurements of control and dbcAMP treated cells were performed using the patch clamp technique at 24, 48 and 72-hours post addition of the cAMP-raising compound.
Electrophysiology of the cells treated with the cAMP-raising compound or not was determined by standard techniques in the art, in particular with the method as described by for example, Bellin et al. (EMBO J. 2013; 32(24): 3161-3175), with the modification that in the examples provide herein spontaneous activity of the stem-cell derived cardiomyocytes was determined and no electric stimulation was required, although measurement may, as the skilled person knows, also be done under conditions of stimulation. Action potentials from small groups of cells (5-10 cells) were measured with the perforated patch clamp technique using an Axopatch 200b amplifier (Molecular Devices) and low resistance patch pipettes (1.5-2.5 MΩ). Data acquisition and analyses of action potentials were performed with pClamp 10 (axon instruments) and custom made software. Action Potentials were corrected for the calculated liquid junction potential (−15 mV).
Action potential from spontaneous beating cells were measured at 37±0.20 C using a modified Tyrode's solution containing (in mM): 140 NaCl, 5.4 KCl, 1.8 CaCl2, 1.0 MgCl2, 5.5 glucose, 5.0 HEPES; pH7.2 (NaOH).
The pipette solution contained (in mM): 125 K-gluconate, 20 KCl, 5 NaCl, 0.22 amphotericin-B, 10 HEPES; pH 7.2 (KOH). […]

For CCCC(=O)Nc1ncnc2c1ncn2[C@@H]1O[C@@H]2COP(=O)(O)O[C@H]2[C@H]1OC(=O)CCC [dbcAMP, N6,2′-O-dibutyryladenosine 3′,5′-cyclic monophosphate], the upstroke velocity (0.5 mM dbcAMP for 24, 48 and 72 hrs vs non-treated, FIG. 1) was “improved the upstroke velocity dramatically”, the “resting membrane potential (liquid junction potential corrected)” value (0.5 mM dbcAMP for 24, 48 and 72 hrs vs non-treated, FIG. 2) was “improved the resting membrane potential dramatically” and the representative action potentials (dbcAMP for 24, 48 and 72 hrs vs non-treated, FIG. 3) was “action potentials that are more adult cardiomyocyte like”. The amplitude (dbcAMP for 24, 48 and 72 hrs vs non-treated, FIG. 4) was “improves the amplitude”, the repolarization parameters (dbcAMP for 24, 48 and 72 hrs vs non-treated, FIG. 5) was “improves the repolarization parameters” and the representative action potentials (dbcAMP for 72 hrs vs non-treated, FIG. 6) was “action potentials that are more adult cardiomyocyte like”.
